We go through 19 compounds from US8815937B2, “Lipoyl compounds and their use for treating ischemic injury” (Ischemix LLC, priority 2010, dated 2014).

The subject of experiment [1] is rat model of MI/AR injury (myocardial ischemia-reperfusion injury). Nature of the experiment: Rat model of MI/AR injury (LCA ligation, myocardial ischemia-reperfusion). Conditions: for MI/AR Reduction (%): male Sprague-Dawley rats, compound given 15 minutes prior to ligation, intravenous, doses ranged 1-20 mg/kg, 24 hours after reperfusion, relative to vehicle controls; for Reduction in Cardiac injury: LCA rat model, procedure of Example 2. The format is in vivo. The source says:
A rat model of MI/AR injury was used as an in vivo screen to determine if the compounds of Tables 1-5 were cardio-protective (e.g., against myocardial ischemia-reperfusion injury). This model is analogous to the ischemia-reperfusion injury observed in cardiac patients following coronary occlusions and cardiac surgery procedures, such as coronary artery bypass grafting (CABG) (Matsui, T., Tao, J., del Monte, F., Lee, K.-H. et al., Akt Activation Preserves Cardiac Function and Prevents Injury After Transient Cardiac Ischemia In vivo, Circulation 2001, 104:330, the teachings of which are incorporated herein by reference in their entirety).
The circumflex branch of the left coronary artery (LCA) was ligated temporarily to induce regional ischemia in the left ventricular mass, followed by the injection of fluorescent microspheres to delineate the ischemic region. 15 minutes prior to ligation (pre-occlusion, pre-ischemic episode), a compound from Tables 1-5 was administered to the animals. Doses of the compounds listed in Tables 1-5 ranged from 1-20 mg/kg. The animals were sacrificed about 24 hours after reperfusion and the hearts were excised, sectioned and stained with triphenyltetrazolium. The direct impact of the pharmacologic intervention was determined by measuring the myocardial infarct area (MI), the ischemic area at risk (AR) and the left ventricular area (LV). The reduction of MI over the AR (MI/AR ratio) was used as the primary measure of drug efficacy relative to vehicle controls.
Male Sprague-Dawley rats between 300 and 350 g were used for these experiments. Anesthesia was induced with 3-4% isoflurane in an induction chamber. After induction, anesthesia was maintained at a surgical plane with 1.5-2.0% isoflurane, administered by a Rodent Ventilator through a 16-gauge angiocatheter introduced orally into the trachea. The ventilator was set at 2.5 cc at a rate of 60-65 breaths per minute to maintain ventilation during surgery. The core temperature of the animal was monitored and maintained at 37° C. using a rectal probe and a heating lamp attached to a temperature controller.
A left anterior thoracotomy was performed and the heart was exposed using a vertical pericardotomy. The circumflex branch of the left coronary artery (LCx) was ligated approximately 4 mm from the aorta using a cardiovascular 7.0 monofilament suture on an 11 mm needle to induce ischemia in the left ventricle.
Fluorescent microspheres (300 μL) were injected into the left ventricular cavity 10-20 minutes after the ligation to delineate the ischemic area. The suture was removed 30 minutes after ligation to reperfuse the ischemic area and the ischemic area was checked for reperfusion.
The chest was then closed in layers using absorbable suture (Dexon 5-0) for the muscle layers and monofilament Nylon 5-0 suture was used to close the cutaneous layer. The animals were allowed to recover, then were returned to the colony.
Twenty-four hours after reperfusion, anesthesia was induced using ketamine hydrochloride and the chest was opened. The animals were sacrificed with 15% potassium chloride aqueous solution (w/v) injected into the LV cavity to arrest the heart in diastole. The heart was excised distal to the aortic valve and washed with saline to remove the blood. Sagittal slices of the heart were obtained between the base of the ventricle and the apex. Five slices of heart tissue were obtained, each 2 mm thick. The slices were immersed in a 1% 2,3,5-triphenyl-2H-tetrazolium chloride (TTC) in saline solution and then stored in the dark for 30 minutes to stain.
Images of the slices were obtained under bright field (to observe the TTC staining) and under fluorescence (to observe the microspheres). The area at risk was determined by the absence of microspheres and the infarct area was determined by the absence of TTC staining.

Experiment [2] concerns PAC rat model of ischemia-induced renal injury. As to the kind of experiment: Partial aortic clamping (PAC) rat model of ischemia-induced renal injury. The format is in vivo. As to conditions: for Reduction of SCr vs. control: serum creatinine 24 hours post-surgery; for serum creatinine concentrations relative to the control animals (in words): administered intravenously. The source says:
A partial aortic clamping (PAC) rat model of ischemia-induced renal injury was used as an in vivo screen to determine if RLip-EA-OH (Entry 1), RLip-Cya-OH (Entry 10), RLip-Tau (Entry 13), and RLip-aminoethylphosphonic acid (Entry 15) were renal-protective (e.g., against renal ischemia-reperfusion injury). This model simulates ischemia-reperfusion injury observed in renal patients following ischemia-induced renal failure (Molitoris, B. A., Dagher, P. C., Sandoval, R. M., Campos, S. B., Ashush, H., Fridman, E., Brafman, A. Faerman, A., Atkinson, S. J., Thompson, J. D., Kalinski, H., Skaliter, R., Erlich, S., Feinstein, E. “siRNA Targeted to p53 Attenuates Ischemic and Cisplatin-Induced Acute Kidney Injury.” J Am Soc Nephrol, 2009, vol. 20, 1754-1764, the teachings of which are incorporated herein by reference to their entirety). Serum creatinine concentrations (SCr) typically rise due to renal ischemia and effective treatment should show a reduction in serum creatinine concentrations.
The abdominal aorta just below the renal arteries was isolated and temporarily ligated to induce regional ischemia using an aortic clamp. An initial blood sample was drawn at study initiation for baseline creatinine measurement and at 24 hours post-surgery for functional evaluation of the severity of kidney injury. The animals were sacrificed about 24 hours after reperfusion.
Male Sprague-Dawley rats between 200 to 250 g were used for these experiments. Anesthesia was induced with 5% halothane and maintained with 1-1.5% halothane in oxygen-enriched air via a face mask. The rats were maintained on a warming blanket throughout the procedure to maintain body temperature at 37° C. After shaving the abdomen of the rat, a midline incision was made through the skin and musculature to expose the abdominal cavity to quantify the aortic blood flow (ABF).
Aortic clamps comprised of two 4-mm in length polyethylene tubes (PE-100, 0.86-mm diameter) were then placed around the aorta to induce renal ischemia. One clamp was placed around the aorta and the other was placed to exert variable tension via a 10-in. 3.0 silk suture. The silk thread was then tied and the tension on the two ends of the thread increased until there was a 90% reduction of initial (ABF) rate measured on the ultrasonic probe reader. A 10% baseline blood flow was maintained for a period of 30 minutes.
RLip-EA-OH (Entry 1) at 10 mg/kg; RLip-Cya-OH (Entry 10) at 3 mg/kg; RLip-Tau (Entry 13) at 3 mg/kg; and RLip-aminoethylphosphonic acid at 10 mg/kg, 3 mg/kg, and 1 mg/kg were administered intravenously via the femoral vein as a bolus dose 15 minutes prior to ischemia. A 0.15-mL venous blood sample was drawn at study initiation for baseline creatinine measurement and at 24 hours postsurgery for functional evaluation of the severity of kidney injury. Serum creatinine concentrations were then measured on a Creatinine Analyzer 2. The efficacy of RLip-EA-OH and RLip-Tau were measured against the results of vehicle-treated animals in the blinded studies. A 2-tail t-test was used to determine differences between treatments.

[3] abbreviates: 3 mg/kg iv bolus 15 minutes prior to ischemia.
Setting [4] is: 10 mg/kg iv bolus 15 minutes prior to ischemia.

In the case of `O=C(CCCC[C@@H]1CCSS1)Nc1ccc(S(=O)(=O)O)cc1` [Entry 19, N-(R)-lipoyl-para-aminobenzene sulfonic acid], in experiment [1], the “MI/AR Reduction (%)” value was 44%. The same measure, in the same setting: next, `CC(NC(=O)CCCCC1CCSS1)C(=O)NC(CCC(=O)O)C(=O)O` [Entry 5, N-(R)-lipoyl-L-alanyl-L-glutamic acid]: 24%. With `O=C(CCCC[C@@H]1CCSS1)NCCP(=O)(O)O` [Entry 15, N-(R)-lipoyl-aminoethylphosphonic acid], the “Reduction in Cardiac injury” value was determined as 30% in experiment [1] (dose group 1 mg/kg), 50% in experiment [1] (dose group 3 mg/kg) and 32% in experiment [1] (dose group 10 mg/kg). For the same compound, in experiment [1], the “MI/AR Reduction (%)” value came out at 53%. The figures for the “Reduction of SCr vs. control” value in experiment [2] (1 mg/kg iv bolus 15 minutes prior to ischemia), in experiment [2] (setting [3]) and in experiment [2] (setting [4]) were 28.6%, 28.6% and 76.0%, respectively. Besides, the “serum creatinine concentrations relative to the control animals (in words)” value in experiment [2] is given as “effectively reduced serum creatinine concentrations”. As for `O=C(CCCC[C@@H]1CCSS1)NCCS(=O)(=O)O` [Entry 13, N-(R)-lipoyl-taurine], the “Reduction in Cardiac injury” value in experiment [1] (dose group 3 mg/kg) was determined as 50%. Further, in experiment [2] (setting [3]), the “Reduction of SCr vs. control” value was determined as 39.5%. Moreover, the “serum creatinine concentrations relative to the control animals (in words)” value in experiment [2] is listed as “effectively reduced serum creatinine concentrations”.

For `O=C(O)CNC(=O)C(CC(=O)O)NC(=O)CCCCC1CCSS1` [Entry 2, N-lipoyl-L-aspartylglycine], in experiment [1], the “MI/AR Reduction (%)” value was found to be 28%.

On to `O=C(CCCCC1CCSS1)NC(CF)C(=O)O` [Entry 7, N-(R)-lipoyl-fluoroalanine], for which the “MI/AR Reduction (%)” value in experiment [1] is reported as 10%. As to `O=C(CCCCC1CCSS1)NC(CS(=O)(=O)O)C(=O)O` [Entry 10, N-(R)-lipoyl-L-cysteic acid], in experiment [1] (dose group 3 mg/kg), the “Reduction in Cardiac injury” value is given as 30%. In addition, the “MI/AR Reduction (%)” value in experiment [1] is reported as 30%. In addition, the “Reduction of SCr vs. control” value in experiment [2] (setting [3]) is on record as 39.5%. The “serum creatinine concentrations relative to the control animals (in words)” value in experiment [2] is recorded as “effectively reduced serum creatinine concentrations”. Take `O=C(CCCC[C@@H]1CCSS1)Nc1ccc(C(=O)O)cc1` [Entry 17, N-(R)-lipoyl-para-aminobenzoic acid]: the “MI/AR Reduction (%)” value in experiment [1] amounted to 22%. The same measure, in the same setting: for `CC(NC(=O)C(Cc1ccc(O)cc1)NC(=O)CCCCC1CCSS1)C(=O)O` [Entry 3, N-(R)-lipoyl-L-tyrosinyl-L-alanine] the value was 31%.

With `CC(NC(=O)C(CCC(=O)O)NC(=O)CCCCC1CCSS1)C(=O)O` [Entry 1, N-(R)-lipoyl-L-glutamyl-L-alanine], the “Reduction in Cardiac injury” value in experiment [1] (dose group 10 mg/kg) is reported as 33%. In addition, in experiment [1], the “MI/AR Reduction (%)” value came out at 31%. Besides, the “Reduction of SCr vs. control” value in experiment [2] (setting [4]) was 39.5%. Moreover, the “serum creatinine concentrations relative to the control animals (in words)” value in experiment [2] was “effectively reduced serum creatinine concentrations”. Consider `O=C(O)CCNC(=O)CCCC[C@@H]1CCSS1` [Entry 12, N-(R)-lipoyl-β-alanine], for which the “MI/AR Reduction (%)” value in experiment [1] came to 39%. For the compound `O=C(O)CCC(NC(=O)CCCCC1CCSS1)C(=O)NCCS(=O)(=O)O` [Entry 4, N-(R)-lipoyl-L-glutamyltaurine], in experiment [1], the “MI/AR Reduction (%)” value was found to be 33%. Still for that read-out and setting: next, `O=C(O)CN(CC(=O)O)C(=O)CCCC[C@@H]1CCSS1` [Entry 11, N-(R)-lipoyliminodiacetic acid]: 21%; `O=C(CCCCC1CCSS1)NC(Cc1ccc(O)cc1)C(=O)O` [Entry 8, N-(R)-lipoyl-L-tyrosine]: 29%; `O=C(CCCC[C@@H]1CCSS1)Nc1cccc(S(=O)(=O)O)c1` [Entry 18, N-(R)-lipoyl-meta-aminobenzene sulfonic acid]: 33%. For `O=C(O)CCC(NC(=O)CCCCC1CCSS1)C(=O)O` [Entry 9, N-(R)-lipoyl-L-glutamic acid], the “MI/AR Reduction (%)” value in experiment [1] is on record as 33%.

`O=C(CCCCC1CCSS1)NCCOP(=O)(O)O` [Entry 16, N-(R)-lipoyl-aminoethyl dihydrogenphosphate]: the “MI/AR Reduction (%)” value in experiment [1] is 47%. Regarding `O=C(CCCCC1CCSS1)NCCOS(=O)(=O)O` [Entry 14, N-(R)-lipoyl-aminoethyl hydrogensulfate], the “MI/AR Reduction (%)” value in experiment [1] amounted to 30%.

`O=C(CCCCC1CCSS1)NC(Cc1ccc(C(=O)O)cc1)C(=O)O` [Entry 6, N-(R)-lipoyl-L-4-carboxyphenylalanine]: in experiment [1], the “MI/AR Reduction (%)” value is listed as 26%.
